Data reported in ChEMBL document CHEMBL1201862, “PubChem BioAssay data set” (2004).
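Step 1: Grow cells in 96-well plates. Step 2: Expose to compound for 48 hours at 5 concentrations. Step 3: Interpolate endpoints linearly; if unreached, use highest concentration. GI50 is the concentration that inhibits growth by half.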 Active and inactive are the calls of the source. Rule as the data show it: active = GI50 up to about 1.1 µM and inactive = higher.

What was measured:
Test in all cases: inhibition of tumour cell growth, NCI panel, 48 h
[1] = test system: CAKI-1
[2] = test system: DLD-1
[3] = test system: K562
[4] = test system: M14
[5] = test system: MOLT-4
[6] = test system: Malme-3M
[7] = test system: NCI-H460
[8] = test system: OVCAR-8
[9] = test system: SF-539
[10] = test system: SK-MEL-2
[11] = test system: SK-MEL-5
[12] = test system: SN12C
[13] = test system: UACC-257
[14] = test system: HL-60
[15] = test system: HOP-92
[16] = test system: SK-OV-3
[17] = test system: BT-549
[18] = test system: Hs-578T
[19] = test system: MDA-MB-231
[20] = test system: PC-3

Measured: GI50

CCOC(=O)[C@H]1Nc2ccc(OC)cc2C2c3ccccc3CC21 (some centres not stated)
inactive: [1] > 100 µM | [2] > 100 µM | [3] > 100 µM | [4] > 100 µM | [5] > 100 µM | [6] > 100 µM | [7] > 100 µM | [8] > 100 µM | [9] > 100 µM | [10] > 100 µM | [11] > 100 µM | [12] > 100 µM | [13] > 100 µM

CS/C(=N/C(=O)c1ccccc1Cl)SCCS/C(=N\C(=O)c1ccccc1Cl)SC
inactive: [1] > 100 µM | [2] > 100 µM | [14] > 100 µM | [15] 19.6 µM | [3] > 100 µM | [4] > 100 µM | [5] > 100 µM | [6] > 100 µM | [7] > 100 µM | [8] > 100 µM | [9] > 100 µM | [10] > 100 µM | [11] > 100 µM | [12] > 100 µM | [13] > 100 µM

CN(C)CCSc1nccc(-c2cc3ccccc3s2)n1
inactive: [1] 25.8 µM | [2] 32.6 µM | [15] 2.87 µM | [4] 15.6 µM | [5] 26.2 µM | [6] 19.5 µM | [7] 13.8 µM | [8] 22.3 µM | [9] 18.2 µM | [10] 17.3 µM | [11] 14.3 µM | [16] 37.3 µM | [12] 30.4 µM | [13] > 10 µM

Cc1nc2c(n1CC(C)(C)C)C(=O)c1ccccc1C2=O
inactive: [2] > 100 µM | [14] 36.1 µM | [15] 16.7 µM | [3] 56 µM | [4] > 100 µM | [5] 91.2 µM | [6] 76.9 µM | [7] 58.6 µM | [8] > 100 µM | [9] > 100 µM | [10] > 100 µM | [11] 43.1 µM | [16] > 100 µM | [12] > 100 µM | [13] 80.7 µM

CNS(=O)(=O)NNS(=O)(=O)c1cccc([N+](=O)[O-])c1
inactive: [1] > 100 µM | [2] > 100 µM | [3] > 100 µM | [4] > 100 µM | [5] > 100 µM | [6] > 100 µM | [7] > 100 µM | [8] > 100 µM | [9] > 100 µM | [10] > 100 µM | [11] > 100 µM | [12] > 100 µM | [13] > 100 µM

NCCNc1cccc2ccccc12
inactive: [1] > 100 µM | [2] > 100 µM | [14] > 100 µM | [15] > 100 µM | [4] > 100 µM | [6] > 100 µM | [7] > 100 µM | [8] > 100 µM | [9] > 100 µM | [10] > 100 µM | [16] > 100 µM | [12] > 100 µM | [13] > 100 µM

CCOC(=O)C1=C(C)N(NC(=O)Nc2ccccc2)C2(N)N(NC(=O)Nc3ccccc3)C(C)=C(C(=O)OCC)C12C#N (configuration not stated)
inactive: [1] 19.2 µM | [2] 19.4 µM | [15] 20.2 µM | [3] 20 µM | [4] 19.9 µM | [5] 21.6 µM | [6] 15.5 µM | [7] 17.8 µM | [8] 18.5 µM | [10] 16.1 µM | [16] 25.5 µM | [12] 17.6 µM | [13] 23.7 µM

CCOC(=O)C12CCSC1C1(C#N)C(C#N)=CC2(N=P(c2ccccc2)(c2ccccc2)c2ccccc2)n2c(=O)n(-c3ccccc3)c(=O)n21 (configuration not stated)
inactive: [1] 28.6 µM | [2] 35.9 µM | [14] 26.1 µM | [15] 12.4 µM | [3] 33.9 µM | [4] 42.2 µM | [5] 30.3 µM | [6] 44.6 µM | [7] 37.7 µM | [8] 47.1 µM | [9] 73.6 µM | [10] 48.6 µM | [11] 25.2 µM | [12] 62.2 µM | [13] 33.6 µM

C/C(CC(=O)Nc1ccc(C)c(C)c1)=N\NC(N)=O
inactive: [2] > 100 µM | [14] > 100 µM | [15] > 100 µM | [3] > 100 µM | [4] > 100 µM | [5] > 100 µM | [6] > 100 µM | [7] > 100 µM | [8] > 100 µM | [9] > 100 µM | [10] > 100 µM | [11] > 100 µM | [16] > 100 µM | [13] > 100 µM

CC1=NN(C(=O)c2ccncc2)C(=O)C1/N=N/c1ccc(F)cc1 (configuration not stated)
inactive: [1] > 100 µM | [2] > 100 µM | [14] > 100 µM | [15] 51.6 µM | [3] > 100 µM | [4] > 100 µM | [6] > 100 µM | [7] > 100 µM | [8] > 100 µM | [9] 59.2 µM | [10] > 100 µM | [11] > 100 µM | [16] > 100 µM | [12] > 100 µM | [13] > 100 µM

COc1cccc(-c2c(-c3ccccc3)[nH]c(C)c2C(=O)ONC(=O)c2ccccc2)c1
inactive: [17] 5.41 µM | [1] 3.18 µM | [14] 1.93 µM | [15] 1.83 µM | [18] 4.95 µM | [3] 2.89 µM | [4] 5.7 µM | [19] 9.55 µM | [5] 4.24 µM | [6] 13.4 µM | [7] 3.19 µM | [8] 5.18 µM | [20] 11.6 µM | [9] 6.76 µM | [10] 10.4 µM | [11] 9.93 µM | [16] 14.2 µM | [12] 3.4 µM | [13] 13.5 µM

CCOC(=O)C(Cc1ccc(OC(=O)c2ccc(OC)cc2)cc1)NC(=O)C(F)(F)F (configuration not stated)
inactive: [17] > 100 µM | [1] > 100 µM | [14] > 100 µM | [15] 45.8 µM | [18] > 100 µM | [3] > 100 µM | [4] > 100 µM | [19] 77.6 µM | [5] > 100 µM | [6] > 100 µM | [7] > 100 µM | [8] > 100 µM | [20] > 100 µM | [9] > 100 µM | [10] > 100 µM | [11] > 100 µM | [16] > 100 µM | [12] > 100 µM | [13] > 100 µM

Cc1nc2nnc(C)n2c2c1C(=O)Nc1ccccc1N2
inactive: [2] > 100 µM | [14] > 100 µM | [15] > 100 µM | [3] > 100 µM | [4] > 100 µM | [5] > 100 µM | [6] > 100 µM | [7] > 100 µM | [8] > 100 µM | [9] > 100 µM | [10] > 100 µM | [16] > 100 µM | [12] > 100 µM | [13] > 100 µM
